Results as given in patent publication US20250295646A1, “METHODS OF USE OF T-TYPE CALCIUM CHANNEL MODULATORS” (Praxis Precision Medicines, Inc., priority 2022, published 2025).

Test system: adult patients with essential tremor
Assay: Example 16: accelerometer-based (Kinesia ONE) TETRAS upper limb score
Format: in vivo, human
From the text: Accelerometer (Kinesia ONE) TETRAS assessments were generally consistent with those conducted at the clinic. Accelerometer upper limb score values are summarized for Part A, the open-label titration phase of Part B, and the randomized withdrawal phase of Part B in Table 37, Table 38, and Table 39, respectively

[1] = Day 1, Post - dose, Part B, Formula (I) arm (N = 4), baseline upper limb score ≥10
[2] = Day 7, Part B, Formula (I) arm (N = 4), baseline upper limb score ≥10
[3] = Day 21, Part B, Formula (I) arm (N = 4), baseline upper limb score ≥10
[4] = Day 42, Post - dose, Part B, Formula (I) arm (N = 4), baseline upper limb score ≥10
[5] = Day 42, Pre - dose, Part B, Formula (I) arm (N = 4), baseline upper limb score ≥10
[6] = Day 42 Post - dose (Randomization Baseline), Part B, Formula (I) arm (N = 4), baseline upper limb score ≥10
[7] = Day 56, Part B, Formula (I) arm (N = 4), baseline upper limb score ≥10
[8] = Day 56, Part B, baseline upper limb score ≥10
[9] = Day 70, Part B, Formula (I) arm (N = 4), baseline upper limb score ≥10
[10] = Day 70, Part B, baseline upper limb score ≥10
[11] = Part A (N = 7), Day 1, Post - dose
[12] = Part B Open-Label Titration (N = 17), Day 1, Post - dose
[13] = Part B Open-Label Titration (N = 17), Day 7
[14] = Part B Open-Label Titration (N = 17), Day 21

With `CC(C)(C)NC(=O)CN1CCC(CNC(=O)c2cc(F)cc(Cl)c2)CC1` [compound of formula (I), N-((1-(2-(tert-butylamino)-2-oxoethyl)piperidin-4-yl)methyl)-3-chloro-5-fluorobenzamide] the “Accelerometer-Based Upper Limb Score, Change from Baseline, Mean (SD)” value [1] was −0.45 (1.476), the “Accelerometer-Based Upper Limb Score, Change from Baseline, Median” value [1] was −0.83 and the “Accelerometer-Based Upper Limb Score, Mean (SD)” value [1] was 10.46 (2.611). The “Accelerometer-Based Upper Limb Score, Median” value [1] was 11.50, the “Accelerometer-Based Upper Limb Score, Percentage Change from Baseline in Tremor Amplitude, Mean (SD)” value [1] was −7.70 (24.390) % and the “Accelerometer-Based Upper Limb Score, Percentage Change from Baseline in Tremor Amplitude, Median” value [1] was −14.36%. For the same molecule, the “Accelerometer-Based Upper Limb Score, Change from Baseline, Mean (SD)” value [2] was −1.48 (0.814), the “Accelerometer-Based Upper Limb Score, Change from Baseline, Median” value [2] was −1.85 and the “Accelerometer-Based Upper Limb Score, Mean (SD)” value [2] was 9.67 (3.386). The “Accelerometer-Based Upper Limb Score, Median” value [2] was 11.10, the “Accelerometer-Based Upper Limb Score, Percentage Change from Baseline in Tremor Amplitude, Mean (SD)” value [2] was −24.14 (12.303) % and the “Accelerometer-Based Upper Limb Score, Percentage Change from Baseline in Tremor Amplitude, Median” value [2] was −29.88%. For the same molecule, the “Accelerometer-Based Upper Limb Score, Change from Baseline, Mean (SD)” value [3] was −0.56 (1.181), the “Accelerometer-Based Upper Limb Score, Change from Baseline, Median” value [3] was −0.55 and the “Accelerometer-Based Upper Limb Score, Mean (SD)” value [3] was 10.35 (3.035). The “Accelerometer-Based Upper Limb Score, Median” value [3] was 11.48, the “Accelerometer-Based Upper Limb Score, Percentage Change from Baseline in Tremor Amplitude, Mean (SD)” value [3] was −9.09 (19.622) % and the “Accelerometer-Based Upper Limb Score, Percentage Change from Baseline in Tremor Amplitude, Median” value [3] was −9.68%. The “Accelerometer-Based Upper Limb Score, Change from Baseline, Mean (SD)” value [4] was −0.46 (1.605), the “Accelerometer-Based Upper Limb Score, Change from Baseline, Median” value [4] was −0.23 and the “Accelerometer-Based Upper Limb Score, Percentage Change from Baseline in Tremor Amplitude, Mean (SD)” value [4] was −6.66 (25.539) %. The “Accelerometer-Based Upper Limb Score, Percentage Change from Baseline in Tremor Amplitude, Median” value [4] was −3.87%, the “Accelerometer-Based Upper Limb Score, Change from Baseline, Mean (SD)” value [5] was 0.02 (1.702) and the “Accelerometer-Based Upper Limb Score, Change from Baseline, Median” value [5] was 0.05. For the same molecule, the “Accelerometer-Based Upper Limb Score, Mean (SD)” value [5] was 10.94 (0.884), the “Accelerometer-Based Upper Limb Score, Median” value [5] was 11.23 and the “Accelerometer-Based Upper Limb Score, Percentage Change from Baseline in Tremor Amplitude, Mean (SD)” value [5] was 0.39 (28.120) %. The “Accelerometer-Based Upper Limb Score, Percentage Change from Baseline in Tremor Amplitude, Median” value [5] was 0.78%, the “Accelerometer-Based Upper Limb Score, Mean (SD)” value [6] was 10.45 (1.616) and the “Accelerometer-Based Upper Limb Score, Median” value [6] was 10.88. The “Accelerometer-Based Upper Limb Score, Change from Baseline, Mean (SD)” value [7] was −0.35 (3.213), the “Accelerometer-Based Upper Limb Score, Change from Baseline, Median” value [7] was 0.62 and the “Accelerometer-Based Upper Limb Score, Change from Randomization, LS Mean (SE)” value [7] was 0.071 (1.3594). For the same molecule, the “Accelerometer-Based Upper Limb Score, Change from Randomization, Mean (SD)” value [7] was 0.11 (1.662), the “Accelerometer-Based Upper Limb Score, Change from Randomization, Median” value [7] was 0.70 and the “Accelerometer-Based Upper Limb Score, LS Mean Percentage Change in Tremor Amplitude from Randomization” value [7] was 1.4%. For the same molecule, the “Accelerometer-Based Upper Limb Score, Mean (SD)” value [7] was 10.56 (2.093), the “Accelerometer-Based Upper Limb Score, Median” value [7] was 10.88 and the “Accelerometer-Based Upper Limb Score, Percentage Change from Baseline in Tremor Amplitude, Mean (SD)” value [7] was −1.64 (43.539) %. For the same molecule, the “Accelerometer-Based Upper Limb Score, Percentage Change from Baseline in Tremor Amplitude, Median” value [7] was 9.78%, the “Accelerometer-Based Upper Limb Score, Percentage Change from Randomization in Tremor Amplitude, Mean (SD)” value [7] was 2.97 (26.670) % and the “Accelerometer-Based Upper Limb Score, Percentage Change from Randomization in Tremor Amplitude, Median” value [7] was 12.37%. The “Accelerometer-Based Upper Limb Score, Change from Randomization, LS Mean (SE) for Difference (Formula (I) - Placebo)” value [8] was −2.321 (1.8339), the “Accelerometer-Based Upper Limb Score, Change from Randomization, p-value for LS Mean Difference (Formula (I) - Placebo)” value [8] was 0.2614 and the “Accelerometer-Based Upper Limb Score, LS Mean Percentage Change Difference (Formula (I) - Placebo)” value [8] was −35.5%. The “Accelerometer-Based Upper Limb Score, Change from Baseline, Mean (SD)” value [9] was 2.02 (3.694), the “Accelerometer-Based Upper Limb Score, Change from Baseline, Median” value [9] was 0.35 and the “Accelerometer-Based Upper Limb Score, Change from Randomization, LS Mean (SE)” value [9] was 3.223 (1.4066). For the same molecule, the “Accelerometer-Based Upper Limb Score, Change from Randomization, Mean (SD)” value [9] was 3.02 (2.533), the “Accelerometer-Based Upper Limb Score, Change from Randomization, Median” value [9] was 2.00 and the “Accelerometer-Based Upper Limb Score, LS Mean Percentage Change in Tremor Amplitude from Randomization” value [9] was 46.1%. For the same molecule, the “Accelerometer-Based Upper Limb Score, Mean (SD)” value [9] was 13.17 (0.862), the “Accelerometer-Based Upper Limb Score, Median” value [9] was 13.00 and the “Accelerometer-Based Upper Limb Score, Percentage Change from Baseline in Tremor Amplitude, Mean (SD)” value [9] was 22.11 (42.165) %. The “Accelerometer-Based Upper Limb Score, Percentage Change from Baseline in Tremor Amplitude, Median” value [9] was 6.50%, the “Accelerometer-Based Upper Limb Score, Percentage Change from Randomization in Tremor Amplitude, Mean (SD)” value [9] was 39.81 (24.948) % and the “Accelerometer-Based Upper Limb Score, Percentage Change from Randomization in Tremor Amplitude, Median” value [9] was 31.87%. For the same molecule, the “Accelerometer-Based Upper Limb Score, Change from Randomization, LS Mean (SE) for Difference (Formula (I) - Placebo)” value [10] was 0.341 (1.8367), the “Accelerometer-Based Upper Limb Score, Change from Randomization, p-value for LS Mean Difference (Formula (I) - Placebo)” value [10] was 0.8597 and the “Accelerometer-Based Upper Limb Score, LS Mean Percentage Change Difference (Formula (I) - Placebo)” value [10] was 3.6%. For the same molecule, the “Accelerometer-Based Upper Limb Score, Change from Baseline, Median” value [11] was 0.20, the “Accelerometer-Based Upper Limb Score, observed, Median” value [11] was 9.40 and the “Accelerometer-based Upper Limb Score, Change from Baseline, LS Mean” value [11] was 0.417. For the same molecule, the “Accelerometer-based Upper Limb Score, Change from Baseline, Mean” value [11] was 0.42, the “Accelerometer-based Upper Limb Score, observed, Mean” value [11] was 10.93 and the “LS Mean Percentage Change in Tremor Amplitude” value [11] was 7.7%. The “Percentage Change from Baseline in Tremor Amplitude, Mean” value [11] was 7.49%, the “Percentage Change from Baseline in Tremor Amplitude, Median” value [11] was 3.76% and the “Accelerometer-Based Upper Limb Score, Change from Baseline, Median” value (Part A (N = 7), Day 7) was −0.40. For the same molecule, the “Accelerometer-Based Upper Limb Score, observed, Median” value (Part A (N = 7), Day 7) was 10.38, the “Accelerometer-based Upper Limb Score, Change from Baseline, LS Mean” value (Part A (N = 7), Day 7) was −1.100 and the “Accelerometer-based Upper Limb Score, Change from Baseline, Mean” value (Part A (N = 7), Day 7) was −1.10. For the same molecule, the “Accelerometer-based Upper Limb Score, observed, Mean” value (Part A (N = 7), Day 7) was 9.31, the “LS Mean Percentage Change in Tremor Amplitude” value (Part A (N = 7), Day 7) was −19.0% and the “Percentage Change from Baseline in Tremor Amplitude, Mean” value (Part A (N = 7), Day 7) was −15.89%. For the same molecule, the “Percentage Change from Baseline in Tremor Amplitude, Median” value (Part A (N = 7), Day 7) was −7.39%, the “Accelerometer-Based Upper Limb Score, Change from Baseline, Median” value (Part A (N = 7), Day 14) was −1.15 and the “Accelerometer-Based Upper Limb Score, observed, Median” value (Part A (N = 7), Day 14) was 8.30. The “Accelerometer-based Upper Limb Score, Change from Baseline, LS Mean” value (Part A (N = 7), Day 14) was −1.300, the “Accelerometer-based Upper Limb Score, Change from Baseline, Mean” value (Part A (N = 7), Day 14) was −1.30 and the “Accelerometer-based Upper Limb Score, observed, Mean” value (Part A (N = 7), Day 14) was 8.23. The “LS Mean Percentage Change in Tremor Amplitude” value (Part A (N = 7), Day 14) was −22.1%, the “Percentage Change from Baseline in Tremor Amplitude, Mean” value (Part A (N = 7), Day 14) was −20.27% and the “Percentage Change from Baseline in Tremor Amplitude, Median” value (Part A (N = 7), Day 14) was −19.80%. For the same molecule, the “Accelerometer-Based Upper Limb Score, Change from Baseline, Median” value (Part A (N = 7), Day 21) was −1.05, the “Accelerometer-Based Upper Limb Score, observed, Median” value (Part A (N = 7), Day 21) was 10.98 and the “Accelerometer-based Upper Limb Score, Change from Baseline, LS Mean” value (Part A (N = 7), Day 21) was −0.117. For the same molecule, the “Accelerometer-based Upper Limb Score, Change from Baseline, Mean” value (Part A (N = 7), Day 21) was −0.12, the “Accelerometer-based Upper Limb Score, observed, Mean” value (Part A (N = 7), Day 21) was 10.11 and the “LS Mean Percentage Change in Tremor Amplitude” value (Part A (N = 7), Day 21) was −2.2%. The “Percentage Change from Baseline in Tremor Amplitude, Mean” value (Part A (N = 7), Day 21) was −2.75%, the “Percentage Change from Baseline in Tremor Amplitude, Median” value (Part A (N = 7), Day 21) was −18.25% and the “Accelerometer-Based Upper Limb Score, Change from Baseline, LS Mean (SE)” value [12] was −0.633 (0.3456). The “Accelerometer-Based Upper Limb Score, Change from Baseline, Mean (SD)” value [12] was −0.56 (1.700), the “Accelerometer-Based Upper Limb Score, Change from Baseline, Median” value [12] was −0.60 and the “Accelerometer-Based Upper Limb Score, observed, Mean (SD)” value [12] was 9.67 (3.109). The “Accelerometer-Based Upper Limb Score, observed, Median” value [12] was 10.50, the “LS Mean Percentage Change in Tremor Amplitude” value [12] was −11.4% and the “Percentage Change from Baseline in Tremor Amplitude, Mean (SD)” value [12] was −8.42 (25.587) %. For the same molecule, the “Percentage Change from Baseline in Tremor Amplitude, Median” value [12] was −10.87%, the “Accelerometer-Based Upper Limb Score, Change from Baseline, LS Mean (SE)” value [13] was −1.235 (0.3722) and the “Accelerometer-Based Upper Limb Score, Change from Baseline, Mean (SD)” value [13] was −1.15 (2.151). For the same molecule, the “Accelerometer-Based Upper Limb Score, Change from Baseline, Median” value [13] was −1.20, the “Accelerometer-Based Upper Limb Score, observed, Mean (SD)” value [13] was 8.91 (3.335) and the “Accelerometer-Based Upper Limb Score, observed, Median” value [13] was 8.85. The “LS Mean Percentage Change in Tremor Amplitude” value [13] was −21.1%, the “Percentage Change from Baseline in Tremor Amplitude, Mean (SD)” value [13] was −15.44 (29.596) % and the “Percentage Change from Baseline in Tremor Amplitude, Median” value [13] was −19.95%. For the same molecule, the “Accelerometer-Based Upper Limb Score, Change from Baseline, LS Mean (SE)” value [14] was −1.835 (0.4715), the “Accelerometer-Based Upper Limb Score, Change from Baseline, Mean (SD)” value [14] was −1.57 (2.142) and the “Accelerometer-Based Upper Limb Score, Change from Baseline, Median” value [14] was −1.00. For the same molecule, the “Accelerometer-Based Upper Limb Score, observed, Mean (SD)” value [14] was 9.09 (2.989), the “Accelerometer-Based Upper Limb Score, observed, Median” value [14] was 8.95 and the “LS Mean Percentage Change in Tremor Amplitude” value [14] was −29.7%. The “Percentage Change from Baseline in Tremor Amplitude, Mean (SD)” value [14] was −21.20 (27.676) %.
